Results taken from patent US20220151979A1, “COMPOSITION FOR PREVENTION OR TREATMENT OF CARDIOVASCULAR AND METABOLIC DISEASE COMPRISING NORANHYDROICARITIN” (SEOUL NATIONAL UNIVERSITY HOSPITAL, priority 2019, published 2022).

How the values were obtained:
Type in all cases: cell-based, human
[1] = tested on: PCSK9; assay: Immunoblot of PCSK9 in HepG2 cells, noranhydroicaritin and pravastatin, pitavastatin, fluvastatin or simvastatin (Table 1); details: statin 5 μM singly, untreated = 1 ± 0.04
Protocol: (§1) The cells aliquoted by the method of Example 7 were treated with noranhydroicaritin or each statin (pravastatin, pitavastatin, fluvastatin, or simvastatin) singly or with noranhydroicaritin and a statin (pravastatin, pitavastatin, fluvastatin, or simvastatin) simultaneously, and the proteins were extracted. On an SDS-polyacrylamide gel, 30 μg of each protein was electrophoresed, and attached to a membrane, and then protein expression levels were confirmed using the respective antibodies: PCSK9 and LDLR.

[2] = tested on: PCSK9; assay: Immunoblot of PCSK9 in HepG2 cells, noranhydroicaritin and statin singly or in combination; details: treated singly
Protocol: as §1, with “or a” for “or each”, “statin (atorvastatin” for “statin (pravastatin, pitavastatin, fluvastatin,”, “or rosuvastatin)” for “or simvastatin)”, “antibodies: phospho-AMPK, PCSK9, LDLR,” for “antibodies: PCSK9”, “and PPARγ.” for “and LDLR.”

[3] = tested on: SREBP 2 promoter; assay: SREBP 2 promoter-reporter luciferase assay in HEK293T cells; details: pGL4.14-SREBP-transfected HEK293T cells, 18 hours, compared to control
Protocol: (§2) In order to confirm the SREBP gene expression inhibitory effect of noranhydroicaritin, HEK293T cells were treated with noranhydroicaritin and kaempferol, and it was confirmed whether the expression of SREBP was inhibited through a luciferase assay.
(§3) i) A primer was prepared to contain KpnI and XhoI restriction enzyme sites in the SREBP 1 and 2 promoter gene region, and then PCR (polymerase chain reaction) and electrophoresis on an agarose gel were performed to isolate SREBP promoter region DNA. A pGL4.14-[luc2/Hygro] vector containing a firefly luciferase as a reporter gene was treated with the same restriction enzymes (KpnI and XhoI), and then isolated via agarose gel electrophoresis and gel extraction. The purely isolated SREBP promoter gene region and pGL4.14-[luc2/Hygro] vector were reacted for 1 hour using In-fusion DNA ligase (Takara), and then transformed into E. coli to prepare a promoter-reporter construct in which the SREBP promoter was inserted, and this was named pGL4.14-SREBP.
(§4) ii) In order to measure the transcriptional activity of the SREBP promoter gene, HEK293T cells were transfected with pGL4.14-SREBP, and then the luciferase activity of the cell extract was measured. […] Thereafter, the luciferase activity was measured by the method of Example 6. […]

[4] = tested on: SREBP 1 promoter; assay: SREBP 1 promoter-reporter luciferase assay in HEK293T cells; details: pGL4.14-SREBP-transfected HEK293T cells, 18 hours, compared to control
Protocol: as §2, §3, §4

Structure (SMILES): CC(C)n1c(/C=C/C(O)CC(O)CC(=O)O)c(-c2ccc(F)cc2)c2ccccc21 (centres unmarked) [Fluvastatin, fluvastatin]
- PCSK9 [1]: 1.63 ± 0.02

Structure (SMILES): O=C(O)C[C@H](O)C[C@H](O)/C=C/c1c(C2CC2)nc2ccccc2c1-c1ccc(F)cc1 [Pitavastatin, pitavastatin]
- PCSK9 [1]: 1.59 ± 0.02

Structure (SMILES): CC[C@H](C)C(=O)O[C@H]1C[C@H](O)C=C2C=C[C@H](C)[C@H](CC[C@@H](O)C[C@@H](O)CC(=O)O)[C@H]21 [Pravastatin, pravastatin]
- PCSK9 [1]: 1.9 ± 0.06

Structure (SMILES): CCC(C)(C)C(=O)O[C@H]1C[C@@H](C)C=C2C=C[C@H](C)[C@H](CC[C@@H]3C[C@@H](O)CC(=O)O3)[C@H]21 [Simvastatin, simvastatin]
- PCSK9 [1]: 1.85 ± 0.11

Structure (SMILES): CC(C)c1c(C(=O)Nc2ccccc2)c(-c2ccccc2)c(-c2ccc(F)cc2)n1CC[C@@H](O)C[C@@H](O)CC(=O)O [atorvastatin]
- quantity of PCSK9 (immunoblot) [2]: increased

Structure (SMILES): O=c1c(O)c(-c2ccc(O)cc2)oc2cc(O)cc(O)c12 [kaempferol, reference compound]
- SREBP 2 luciferase activity [3]: actually increased
- SREBP 1 luciferase activity [4]: actually increased

Structure (SMILES): CC(C)c1nc(N(C)S(C)(=O)=O)nc(-c2ccc(F)cc2)c1/C=C/[C@@H](O)C[C@@H](O)CC(=O)O [rosuvastatin]
- quantity of PCSK9 (immunoblot) [2]: increased
